Assay results from article PMC6979384, “Characterization of the plant homeodomain (PHD) reader family for their histone tail interactions” (Epigenetics & Chromatin, 2020).

What was measured:
Test in all cases: Histone peptide microarray
Assay type in all cases: binding, human
AIRE (PP) = details: GST-tagged AIRE (PP); sheet Array Heatmap; each array performed twice, total n = 4
Method in brief: (§1)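 Using an optimized microarray protocol, purified GST-tagged PHD fingers were incubated at 0.5 μM on 293 histone peptides with single or multiple modifications, and array signal was recorded as the average of 4 replicates.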

BAZ2B = details: GST-tagged BAZ2B; sheet Array Heatmap; each array performed twice, total n = 4
Method in brief: as §1

BPTF (PB) = details: GST-tagged BPTF (PB = PHD + Bromodomain); sheet Array Heatmap; each array performed twice, total n = 4
Method in brief: as §1

CHD4 (PPCC) = details: GST-tagged CHD4 (PPCC = Dual PHD + Dual Chromodomain); sheet Array Heatmap; each array performed twice, total n = 4
Method in brief: as §1

CHD5 (PCC) = details: GST-tagged CHD5 (PCC = PHD + Dual Chromodomain); sheet Array Heatmap; each array performed twice, total n = 4
Method in brief: as §1

CHD5 (PPCC) = details: GST-tagged CHD5 (PPCC = Dual PHD + Dual Chromodomain); sheet Array Heatmap; each array performed twice, total n = 4
Method in brief: as §1

DIDO1 = details: GST-tagged DIDO1; sheet Array Heatmap; each array performed twice, total n = 4
Method in brief: as §1

DPF2 (PPC2W2) = details: GST-tagged DPF2 (PPC2W2 = Dual PHD + C2W2-type Zn-finger); sheet Array Heatmap; each array performed twice, total n = 4
Method in brief: as §1

ING1 = details: GST-tagged ING1; sheet Array Heatmap; each array performed twice, total n = 4
Method in brief: as §1

ING2 = details: GST-tagged ING2; sheet Array Heatmap; each array performed twice, total n = 4
Method in brief: as §1

ING3 = details: GST-tagged ING3; sheet Array Heatmap; each array performed twice, total n = 4
Method in brief: as §1

ING4 = details: GST-tagged ING4; sheet Array Heatmap; each array performed twice, total n = 4
Method in brief: as §1

ING5 = details: GST-tagged ING5; sheet Array Heatmap; each array performed twice, total n = 4
Method in brief: as §1

KDM4C (TTP) = details: GST-tagged KDM4C (TTP = Tandem Tudor domain + PHD); sheet Array Heatmap; each array performed twice, total n = 4
Method in brief: as §1

KDM5A (1) = details: GST-tagged KDM5A (1); sheet Array Heatmap; each array performed twice, total n = 4
Method in brief: as §1

KDM5A (3) = details: GST-tagged KDM5A (3); sheet Array Heatmap; each array performed twice, total n = 4
Method in brief: as §1

KDM5B (1) = details: GST-tagged KDM5B (1); sheet Array Heatmap; each array performed twice, total n = 4
Method in brief: as §1

KDM5B (3) = details: GST-tagged KDM5B (3); sheet Array Heatmap; each array performed twice, total n = 4
Method in brief: as §1

KDM7A = details: GST-tagged KDM7A; sheet Array Heatmap; each array performed twice, total n = 4
Method in brief: as §1

MLL5 = details: GST-tagged MLL5; sheet Array Heatmap; each array performed twice, total n = 4
Method in brief: as §1

MORC3 (CW) = details: GST-tagged MORC3 (CW = CW-type Zn-finger); sheet Array Heatmap; each array performed twice, total n = 4
Method in brief: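 GST-tagged PHD readers, 0.5 μM, probed on a microarray of 293 synthetic histone peptides carrying single or combinatorial PTMs (optimized Petell protocol). Signals are averaged over 4 replicates and expressed as relative binding.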

PHF13 = details: GST-tagged PHF13; sheet Array Heatmap; each array performed twice, total n = 4
Method in brief: as §1

PHF21A = details: GST-tagged PHF21A; sheet Array Heatmap; each array performed twice, total n = 4
Method in brief: as §1

PHF23 = details: GST-tagged PHF23; sheet Array Heatmap; each array performed twice, total n = 4
Method in brief: as §1

PHF2 = details: GST-tagged PHF2; sheet Array Heatmap; each array performed twice, total n = 4
Method in brief: as §1

PHF8 = details: GST-tagged PHF8; sheet Array Heatmap; each array performed twice, total n = 4
Method in brief: as §1

PHRF1 (RP) = details: GST-tagged PHRF1 (RP); sheet Array Heatmap; each array performed twice, total n = 4
Method in brief: as §1

RAG2 = details: GST-tagged RAG2; sheet Array Heatmap; each array performed twice, total n = 4
Method in brief: as §1

SP140L = details: GST-tagged SP140L; sheet Array Heatmap; each array performed twice, total n = 4
Method in brief: as §1

TAF3 = details: GST-tagged TAF3; sheet Array Heatmap; each array performed twice, total n = 4
Method in brief: as §1

TRIM66 (PB) = details: GST-tagged TRIM66 (PB = PHD + Bromodomain); sheet Array Heatmap; each array performed twice, total n = 4
Method in brief: as §1

H3T3p + K4me3: H3 1-20
Array Heatmap signal (histone peptide microarray) (AIRE (PP)): 0.3968 | Array Heatmap signal (histone peptide microarray) (BAZ2B): 0.4608 | Array Heatmap signal (histone peptide microarray) (BPTF (PB)): 0.35 | Array Heatmap signal (histone peptide microarray) (CHD4 (PPCC)): 0.624 | Array Heatmap signal (histone peptide microarray) (CHD5 (PCC)): 0.7821 | Array Heatmap signal (histone peptide microarray) (CHD5 (PPCC)): 0.5481 | Array Heatmap signal (histone peptide microarray) (DIDO1): 0.6916 | Array Heatmap signal (histone peptide microarray) (DPF2 (PPC2W2)): 0.6866 | Array Heatmap signal (histone peptide microarray) (ING1): 0.5588 | Array Heatmap signal (histone peptide microarray) (ING2): 0.6632 | Array Heatmap signal (histone peptide microarray) (ING3): 0.4764 | Array Heatmap signal (histone peptide microarray) (ING4): 0.4716 | Array Heatmap signal (histone peptide microarray) (ING5): 0.3533 | Array Heatmap signal (histone peptide microarray) (KDM4C (TTP)): 0.4706 | Array Heatmap signal (histone peptide microarray) (KDM5A (1)): 0.462 | Array Heatmap signal (histone peptide microarray) (KDM5A (3)): 0.5826 | Array Heatmap signal (histone peptide microarray) (KDM5B (1)): 0.6609 | Array Heatmap signal (histone peptide microarray) (KDM5B (3)): 0.5163 | Array Heatmap signal (histone peptide microarray) (KDM7A): 0.3295 | Array Heatmap signal (histone peptide microarray) (MLL5): 0.5412 | Array Heatmap signal (histone peptide microarray) (MORC3 (CW)): 0.5559 | Array Heatmap signal (histone peptide microarray) (PHF13): 0.62 | Array Heatmap signal (histone peptide microarray) (PHF21A): 0.4603 | Array Heatmap signal (histone peptide microarray) (PHF23): 0.5295 | Array Heatmap signal (histone peptide microarray) (PHF2): 0.5905 | Array Heatmap signal (histone peptide microarray) (PHF8): 0.3669 | Array Heatmap signal (histone peptide microarray) (PHRF1 (RP)): 0.4433 | Array Heatmap signal (histone peptide microarray) (RAG2): 0.2672 | Array Heatmap signal (histone peptide microarray) (SP140L): 0.3246 | Array Heatmap signal (histone peptide microarray) (TAF3): 0.2953 | Array Heatmap signal (histone peptide microarray) (TRIM66 (PB)): 0.5989
